We go through eight compounds from PubChem BioAssay (NCI).

Structures are written as SMILES.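 Briefly, cells in 96-well plates were exposed to five compound concentrations for 48 h, and endpoints were estimated by linear interpolation. TGI denotes the concentration required for complete inhibition of growth.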

Some test systems named below: 786-0 renal; ACHN renal; CAKI-1 renal; IGROV1 ovarian; KM12 colon; M14 melanoma; MALME-3M melanoma; NCI-H460 lung; RPMI-8226 leukemia; SF-268 CNS; SK-MEL-2 melanoma; SK-MEL-5 melanoma; SN12C renal; TK-10 renal; UACC-62 melanoma; UO-31 renal; HS 578T breast; MDA-MB-435; BT-549 breast.
Assay in all cases: NCI tumour cell line growth inhibition, 48 h

Regarding `CC(=O)NNc1nc(C)c(C(=O)NNC(=O)C(=O)Nc2c([N+](=O)[O-])ccc(C)c2C)s1`, the TGI in the assay on 786-0 renal, with ACHN renal, in the assay on CAKI-1 renal, with IGROV1 ovarian, in the assay on KM12 colon and in the assay with M14 melanoma was greater than 100 µM in each case. For the same compound, the TGI in the assay with MALME-3M melanoma, in the assay with NCI-H460 lung, with RPMI-8226 leukemia, in the assay on SF-268 CNS, with SK-MEL-2 melanoma and in the assay with SK-MEL-5 melanoma was greater than 100 µM each time. In addition, the TGI with SN12C renal, in the assay with TK-10 renal, with UACC-62 melanoma and with UO-31 renal was greater than 100 µM throughout.

For `O=C(CC(C(=O)c1ccsc1)c1ccsc1)c1ccsc1` (configuration not stated), the TGI in the assay on 786-0 renal, in the assay on ACHN renal, in the assay on CAKI-1 renal, in the assay with HS 578T breast, with IGROV1 ovarian and in the assay on KM12 colon was greater than 100 µM in each case. The TGI in the assay with M14 melanoma, in the assay on MALME-3M melanoma, in the assay with MDA-MB-435, with NCI-H460 lung, in the assay on RPMI-8226 leukemia and in the assay with SF-268 CNS was greater than 100 µM each time. Also, the TGI in the assay with SK-MEL-2 melanoma, with SK-MEL-5 melanoma, in the assay on SN12C renal, in the assay on TK-10 renal, with UACC-62 melanoma and in the assay with UO-31 renal was greater than 100 µM each time.

For the compound `CC1(C)Cc2c(oc3ncnc(N)c23)CS1`, the TGI in the assay with 786-0 renal, with ACHN renal, in the assay on CAKI-1 renal, with IGROV1 ovarian, with KM12 colon and in the assay on M14 melanoma was greater than 100 µM throughout. Further, the TGI with MALME-3M melanoma, in the assay on NCI-H460 lung, with RPMI-8226 leukemia, with SF-268 CNS, in the assay on SK-MEL-2 melanoma and in the assay on SK-MEL-5 melanoma was greater than 100 µM in each case. Further, the TGI in the assay with SN12C renal, in the assay on UACC-62 melanoma and in the assay on UO-31 renal was greater than 100 µM throughout.

For the compound `Nc1nc(Cl)c2ncn(Cc3cccc(CCl)c3)c2n1`, the TGI in the assay with 786-0 renal was 22.6 µM; in the assay on ACHN renal, 12.4 µM; with BT-549 breast it was 17.4 µM; with CAKI-1 renal, 5.37 µM; in the assay on HS 578T breast, 36.9 µM; in the assay on IGROV1 ovarian, 12.3 µM. The TGI worked out at 16 µM in the assay with KM12 colon; 12.9 µM in the assay on M14 melanoma; 18.1 µM with MALME-3M melanoma; 29 µM in the assay on MDA-MB-435; 27 µM with NCI-H460 lung; 9.81 µM in the assay on RPMI-8226 leukemia. The TGI was determined as 18.9 µM with SF-268 CNS; 58.5 µM in the assay with SK-MEL-2 melanoma; 15.9 µM in the assay on SK-MEL-5 melanoma; 22.4 µM with SN12C renal; 22.1 µM in the assay with TK-10 renal; 10.9 µM in the assay on UACC-62 melanoma. Moreover, the TGI with UO-31 renal was found to be 33.7 µM.

As for `COc1cc([C@@H]2c3cc4c(cc3[C@@H](OC(=O)c3cccc(N)c3)C3COC(=O)[C@@H]32)OCO4)cc(OC)c1O` (some centres not stated), the TGI is 28.9 µM in the assay on 786-0 renal; 15.3 µM in the assay on ACHN renal; 29.6 µM in the assay with CAKI-1 renal; greater than 64.8 µM in the assay on IGROV1 ovarian; greater than 73.5 µM with KM12 colon; 28.3 µM in the assay with M14 melanoma. The TGI in the assay on MALME-3M melanoma was greater than 56.3 µM; in the assay on NCI-H460 lung, 20.4 µM; in the assay on RPMI-8226 leukemia, 43.9 µM; in the assay on SF-268 CNS it was greater than 61.1 µM; in the assay with SK-MEL-2 melanoma, 73.3 µM; in the assay on SK-MEL-5 melanoma, 14 µM. Besides, the TGI in the assay on SN12C renal was 31.3 µM; with TK-10 renal it was greater than 100 µM; with UACC-62 melanoma it was 24.1 µM; with UO-31 renal, 26.4 µM.

On to `CC(C)OC(=O)[C@H]1ON2O[C@H](O[C@@H]3CCCC[C@H]3c3ccccc3)C([Si](C)(C)c3ccccc3)[C@H]3OC(=O)[C@@H]1C32` (some centres not stated), for which the TGI in the assay on 786-0 renal, with ACHN renal, with BT-549 breast, in the assay on CAKI-1 renal, in the assay on HS 578T breast and in the assay with IGROV1 ovarian was greater than 100 µM each time. Also, the TGI with KM12 colon, with M14 melanoma, in the assay with MDA-MB-435, in the assay on NCI-H460 lung, in the assay on RPMI-8226 leukemia and in the assay on SF-268 CNS was greater than 100 µM in each case. Moreover, the TGI with SK-MEL-2 melanoma, in the assay on SK-MEL-5 melanoma, in the assay on SN12C renal, in the assay on TK-10 renal, with UACC-62 melanoma and in the assay on UO-31 renal was greater than 100 µM each time.

On to `COC(=O)c1c(-c2cc(OC)c(OC)c(OC)c2)oc2ccccc2c1=O`, for which the TGI in the assay on 786-0 renal, in the assay on ACHN renal, in the assay on CAKI-1 renal, in the assay on IGROV1 ovarian, in the assay with KM12 colon and in the assay on M14 melanoma was greater than 100 µM each time. In addition, the TGI in the assay with MALME-3M melanoma, in the assay with NCI-H460 lung, with RPMI-8226 leukemia, with SK-MEL-2 melanoma, with SK-MEL-5 melanoma and with SN12C renal was greater than 100 µM throughout. The TGI in the assay on TK-10 renal, with UACC-62 melanoma and with UO-31 renal was greater than 100 µM each time.

Consider `COc1ccc(OC)c(/C=C2\CCc3ccccc3C2=O)c1`, for which the TGI was 13.8 µM in the assay with 786-0 renal; 81.2 µM with ACHN renal; greater than 100 µM with CAKI-1 renal; 47.8 µM with IGROV1 ovarian; 12.5 µM in the assay on KM12 colon; 16.3 µM in the assay on M14 melanoma. In addition, the TGI was 18.5 µM in the assay with MALME-3M melanoma; 27.5 µM with NCI-H460 lung; 19.6 µM in the assay on RPMI-8226 leukemia; 22.2 µM with SF-268 CNS; 12.8 µM in the assay with SK-MEL-2 melanoma; 12.4 µM in the assay with SK-MEL-5 melanoma. The results for the TGI with SN12C renal, with TK-10 renal and with UACC-62 melanoma were 25.5 µM, 30.3 µM and 5.39 µM, respectively.
